# Values of other authors as cited in patent US20240207251A1, “PHARMACEUTICAL COMPOSITION CONTAINING ARTESUNATE OR SALT THEREOF AND PYRONARIDINE OR SALT THEREOF, FOR ANTIPYRESIS, ANTI-INFLAMMATORY EFFICACY, ANTI-VIRAL EFFICACY AND TREATMENT OR PREVENTION OF COVID-19, AND METHOD USING SAME” (priority 2021, published 2024).
# Experiments:
# SARS-COV 2 = settings: reported by Joon-Yong Bae et al., bioRxiv, Jul. 28, 2020
# influenza virus = settings: reported by Joon-Yong Bae et al., bioRxiv, Jul. 28, 2020
SMILES,in vitro anti-viral action on COVID-19 (SARS-COV 2),in vitro anti-viral action on influenza (influenza virus)
"C[C@H]1[C@H](OC(=O)CCC(=O)O)O[C@@H]2O[C@@]3(C)CC[C@H]4[C@H](C)CC[C@@H]1[C@@]24OO3 [artesunate, dihydroartemisinine-12-alpha-succinate]",in vitro anti-viral action,in vitro anti-viral action
"COc1ccc2nc3cc(Cl)ccc3c(Nc3cc(CN4CCCC4)c(O)c(CN4CCCC4)c3)c2n1 [pyronaridine, 4-[(7-chloro-2-methoxybenzo[b]-1,5-naphthyridin-10-yl)amino]-2,6-bis(1-pyrrolidinylmethyl)phenyl]",in vitro anti-viral action,in vitro anti-viral action
